According to ChEMBL document CHEMBL4303773 (Nature, 2020):
Activity calls are given as the source filed them. No cut-off for these calls is given here.

How the values were obtained:
[1] = tested on: Vero C1008; assay: AUC (cytotoxicity %) of compound against Vero E6 cells by MTT assay.; type: toxicity, cell-based; details: chlorocebus sabaeus
[2] = tested on: Vero C1008; assay: (§1) Cytotoxicity of compound against Vero E6 cells by MTT assay.; details: chlorocebus sabaeus, vero c1008
[3] = in vitro; details: monkey, Vero E6 cells
[4] = tested on: SARS-CoV-2; details: Chlorocebus sabaeus; Vero C1008
[5] = target: Sigma intracellular receptor 2 (Homo sapiens, UniProt Q5BJF2); assay: Displacement of [3H]-DTG from the Sigma2 receptor
[6] = target: Voltage-gated inwardly rectifying potassium channel KCNH2 (Homo sapiens, UniProt Q12809)
Description: hERG binding assays: Displacement of [3H]-Dofetilide (5 nM final) from hERG membranes obtained from HEK293 cells

[7] = target: T1, Muscarinic acetylcholine receptor M4 (Homo sapiens, UniProt P08173); assay: Activity of compound against Muscarinic acetylcholine receptor M4 (CHRM4) by displacement of 3H-QNB
T1 sequence (P08173 whole entry): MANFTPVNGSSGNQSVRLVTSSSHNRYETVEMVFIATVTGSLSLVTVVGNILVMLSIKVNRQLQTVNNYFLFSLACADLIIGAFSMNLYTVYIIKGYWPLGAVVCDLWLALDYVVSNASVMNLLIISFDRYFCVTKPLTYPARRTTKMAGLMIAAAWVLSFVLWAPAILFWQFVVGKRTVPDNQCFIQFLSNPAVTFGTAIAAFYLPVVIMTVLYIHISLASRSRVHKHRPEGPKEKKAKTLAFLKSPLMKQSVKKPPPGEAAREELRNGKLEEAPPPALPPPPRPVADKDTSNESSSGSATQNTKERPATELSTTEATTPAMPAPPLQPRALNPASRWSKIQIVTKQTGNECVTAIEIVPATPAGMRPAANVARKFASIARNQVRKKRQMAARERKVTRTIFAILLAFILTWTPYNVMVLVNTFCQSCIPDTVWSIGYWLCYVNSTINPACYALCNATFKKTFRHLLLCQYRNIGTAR

[8] = target: T2, Alpha-2A adrenergic receptor (Homo sapiens, UniProt P08913); assay: Activity of compound against Alpha-2A (ADRA2A) adrenergic receptor by displacement of [3H]-rauwolscine
T2 sequence (P08913 whole entry): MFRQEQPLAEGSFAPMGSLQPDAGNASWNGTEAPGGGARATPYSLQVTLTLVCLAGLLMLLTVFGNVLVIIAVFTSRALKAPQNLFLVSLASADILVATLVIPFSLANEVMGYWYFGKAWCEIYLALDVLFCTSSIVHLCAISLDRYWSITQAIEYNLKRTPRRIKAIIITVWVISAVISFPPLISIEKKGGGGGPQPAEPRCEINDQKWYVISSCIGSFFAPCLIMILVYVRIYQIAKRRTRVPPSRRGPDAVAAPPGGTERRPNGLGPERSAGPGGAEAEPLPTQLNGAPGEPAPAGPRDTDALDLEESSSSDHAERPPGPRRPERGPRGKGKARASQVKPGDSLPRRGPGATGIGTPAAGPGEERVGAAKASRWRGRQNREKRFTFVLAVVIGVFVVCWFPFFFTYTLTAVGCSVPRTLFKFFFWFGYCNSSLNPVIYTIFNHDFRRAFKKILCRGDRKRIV

[9] = tested on: SARS-CoV-2; assay: IC90 for antiviral activity against SARS-CoV-2 in the Vero E6 cell line by measuring infectious viral titer of supernatent from compound-treated Vero E6 cells by Median Tissue Culture Infectious Dose (TCID)50 by the method of Reed and Muench; type: functional, Chlorocebus sabaeus; details: Severe acute respiratory syndrome coronavirus 2, Vero C1008
[10] = target: T3, Muscarinic acetylcholine receptor M5 (Homo sapiens, UniProt P08912); assay: Activity of compound against Muscarinic acetylcholine receptor M5 (CHRM5) by displacement of 3H-QNB
T3 sequence (P08912 whole entry): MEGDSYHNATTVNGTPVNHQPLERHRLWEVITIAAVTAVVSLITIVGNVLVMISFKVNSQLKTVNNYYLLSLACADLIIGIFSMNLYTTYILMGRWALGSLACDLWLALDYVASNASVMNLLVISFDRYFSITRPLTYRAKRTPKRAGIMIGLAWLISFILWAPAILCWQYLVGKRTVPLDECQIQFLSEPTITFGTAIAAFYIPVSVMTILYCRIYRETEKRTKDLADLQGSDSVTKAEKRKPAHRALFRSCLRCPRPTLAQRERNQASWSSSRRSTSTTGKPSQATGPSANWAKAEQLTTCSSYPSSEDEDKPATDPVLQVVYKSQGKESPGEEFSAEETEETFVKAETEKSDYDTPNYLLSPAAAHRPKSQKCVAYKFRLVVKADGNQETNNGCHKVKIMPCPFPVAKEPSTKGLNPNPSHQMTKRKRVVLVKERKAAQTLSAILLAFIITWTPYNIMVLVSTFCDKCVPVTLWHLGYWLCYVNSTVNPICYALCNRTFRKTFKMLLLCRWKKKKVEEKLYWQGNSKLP

[11] = target: T4, Muscarinic acetylcholine receptor M2 (Homo sapiens, UniProt P08172); assay: Activity of compound against Muscarinic acetylcholine receptor M2 (CHRM2) by displacement of 3H-QNB
T4 sequence (P08172 whole entry): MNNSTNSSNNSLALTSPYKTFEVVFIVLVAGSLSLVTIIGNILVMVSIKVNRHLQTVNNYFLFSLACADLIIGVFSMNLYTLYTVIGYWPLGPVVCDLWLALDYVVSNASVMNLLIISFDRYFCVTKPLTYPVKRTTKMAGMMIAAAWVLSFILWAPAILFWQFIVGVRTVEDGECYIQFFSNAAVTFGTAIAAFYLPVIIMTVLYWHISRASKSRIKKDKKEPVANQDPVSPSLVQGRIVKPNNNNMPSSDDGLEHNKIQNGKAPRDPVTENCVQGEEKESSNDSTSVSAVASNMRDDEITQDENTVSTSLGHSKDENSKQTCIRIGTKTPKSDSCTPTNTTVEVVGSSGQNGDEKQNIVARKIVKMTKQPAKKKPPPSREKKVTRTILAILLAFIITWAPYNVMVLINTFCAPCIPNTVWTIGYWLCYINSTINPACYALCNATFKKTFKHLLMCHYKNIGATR

[12] = target: Sigma non-opioid intracellular receptor 1 (Homo sapiens, UniProt Q99720)
Description: Displacement of [3H]-pentazocin from the Sigma1 receptor

[13] = as §1; details: chlorocebus sabaeus, Vero E6 cells
[14] = tested on: SARS-CoV-2; details: Chlorocebus sabaeus; Vero C1008; remark: listed apart in the source

Sequence of Sigma non-opioid intracellular receptor 1 (Q99720 whole entry): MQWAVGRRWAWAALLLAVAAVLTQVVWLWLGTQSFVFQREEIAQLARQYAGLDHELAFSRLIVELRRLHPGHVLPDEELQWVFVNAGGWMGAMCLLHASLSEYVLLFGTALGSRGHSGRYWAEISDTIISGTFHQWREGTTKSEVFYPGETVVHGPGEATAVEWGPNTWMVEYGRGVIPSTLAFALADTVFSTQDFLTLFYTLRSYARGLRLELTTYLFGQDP
Sequence of Voltage-gated inwardly rectifying potassium channel KCNH2 (Q12809 whole entry): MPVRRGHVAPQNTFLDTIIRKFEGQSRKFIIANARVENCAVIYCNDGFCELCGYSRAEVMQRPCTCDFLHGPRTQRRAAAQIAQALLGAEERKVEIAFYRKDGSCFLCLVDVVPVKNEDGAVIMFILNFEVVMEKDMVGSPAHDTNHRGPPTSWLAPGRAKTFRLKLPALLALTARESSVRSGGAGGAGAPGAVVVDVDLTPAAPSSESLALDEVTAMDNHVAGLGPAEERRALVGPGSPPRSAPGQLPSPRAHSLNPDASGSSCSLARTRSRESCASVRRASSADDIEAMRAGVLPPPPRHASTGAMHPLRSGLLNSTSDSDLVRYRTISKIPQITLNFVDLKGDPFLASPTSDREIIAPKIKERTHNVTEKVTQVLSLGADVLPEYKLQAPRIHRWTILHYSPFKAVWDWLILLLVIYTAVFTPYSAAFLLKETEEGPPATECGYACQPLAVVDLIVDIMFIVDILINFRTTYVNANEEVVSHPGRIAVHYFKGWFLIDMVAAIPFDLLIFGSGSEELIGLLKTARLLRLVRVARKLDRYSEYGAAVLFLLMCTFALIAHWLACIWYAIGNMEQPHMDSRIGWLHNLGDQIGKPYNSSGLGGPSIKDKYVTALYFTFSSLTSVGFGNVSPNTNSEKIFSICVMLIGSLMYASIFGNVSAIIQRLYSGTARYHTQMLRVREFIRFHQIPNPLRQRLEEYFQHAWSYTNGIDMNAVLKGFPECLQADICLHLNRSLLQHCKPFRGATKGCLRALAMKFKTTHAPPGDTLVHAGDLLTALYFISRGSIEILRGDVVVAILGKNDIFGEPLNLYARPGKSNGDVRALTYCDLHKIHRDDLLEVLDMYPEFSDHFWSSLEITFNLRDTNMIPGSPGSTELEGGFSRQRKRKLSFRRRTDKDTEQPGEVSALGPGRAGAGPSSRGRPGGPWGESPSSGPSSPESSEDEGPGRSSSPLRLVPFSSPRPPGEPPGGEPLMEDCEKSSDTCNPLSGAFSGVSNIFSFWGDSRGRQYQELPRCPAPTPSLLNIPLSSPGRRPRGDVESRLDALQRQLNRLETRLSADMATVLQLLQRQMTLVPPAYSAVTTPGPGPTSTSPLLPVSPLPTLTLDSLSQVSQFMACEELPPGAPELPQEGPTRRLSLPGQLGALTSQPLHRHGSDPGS
Sequence of Sigma intracellular receptor 2 (Q5BJF2 whole entry): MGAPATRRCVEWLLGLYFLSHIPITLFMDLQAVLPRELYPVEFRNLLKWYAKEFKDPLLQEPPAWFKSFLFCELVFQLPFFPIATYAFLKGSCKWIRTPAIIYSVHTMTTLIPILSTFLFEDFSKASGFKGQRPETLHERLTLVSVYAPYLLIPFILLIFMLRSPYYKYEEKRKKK

SMILES: N=C(N)c1ccc2cc(OC(=O)c3ccc(N=C(N)N)cc3)ccc2c1 [NAFAMOSTAT]
- AUC cytotoxicity [1]: 279.9
- pCC50 [2]: ~ 2.44
- selectivity ratio [3]: 0.926 (inactive)

SMILES: CCN(CCO)CCCC(C)Nc1ccnc2cc(Cl)ccc12 (stereo not drawn) [HYDROXYCHLOROQUINE]
- AUC [4]: 140
- AUC cytotoxicity [1]: 234.6
- Ki [5]: 1 µM
- Ki [6]: 2.51 µM
- Ki [7]: 5.5 µM
- Ki [8]: 6.46 µM
- IC90 [9]: 5.78 µM
- Ki [10]: 20 µM
- Ki [11]: 5.13 µM
- Ki [12]: 0.126 µM

SMILES: CN(C)C(=N)N=C(N)N [METFORMIN]
- AUC cytotoxicity [1]: 305.4
- CC50 [13]: ~33.6 µM
- selectivity ratio [3]: 1.04

SMILES: CCOC(=O)N1CCC(=C2c3ccc(Cl)cc3CCc3cccnc32)CC1 [LORATADINE]
- pCC50 [2]: Linear Fit
- pIC50 [14]: Linear Fit; INACTIVE
